Data reported in BindingDB's records for doi:10.1016/j.bmc.2010.08.049 (University of Wisconsin-Milwaukee, 2010).

How the values were obtained:
[1] = target: GABA A receptor alpha-4/beta-3/gamma-2 (Homo sapiens, UniProt P48169+P18507+P28472); test: Displacement of [3H]flunitrazepam from human recombinant GABAA alpha-4-beta-3-gamma-2 receptor expressed in HEK cells by liquid scintillation counting
[2] = target: Gamma-aminobutyric acid receptor subunit alpha-6/beta-3/gamma-2 (Homo sapiens, UniProt Q16445+P18507+P28472); test: Displacement of [3H]flunitrazepam from human recombinant GABAA alpha-6-beta-3-gamma-2 receptor expressed in HEK cells by liquid scintillation counting
[3] = target: T1, GABA-A receptor; alpha-5/beta-3/gamma-2 (Homo sapiens, UniProt P31644+P18507+P28472); test: Displacement of [3H]flunitrazepam from human recombinant GABAA alpha-5-beta-3-gamma-2 receptor expressed in HEK cells by liquid scintillation counting
T1 sequence (P31644 whole entry): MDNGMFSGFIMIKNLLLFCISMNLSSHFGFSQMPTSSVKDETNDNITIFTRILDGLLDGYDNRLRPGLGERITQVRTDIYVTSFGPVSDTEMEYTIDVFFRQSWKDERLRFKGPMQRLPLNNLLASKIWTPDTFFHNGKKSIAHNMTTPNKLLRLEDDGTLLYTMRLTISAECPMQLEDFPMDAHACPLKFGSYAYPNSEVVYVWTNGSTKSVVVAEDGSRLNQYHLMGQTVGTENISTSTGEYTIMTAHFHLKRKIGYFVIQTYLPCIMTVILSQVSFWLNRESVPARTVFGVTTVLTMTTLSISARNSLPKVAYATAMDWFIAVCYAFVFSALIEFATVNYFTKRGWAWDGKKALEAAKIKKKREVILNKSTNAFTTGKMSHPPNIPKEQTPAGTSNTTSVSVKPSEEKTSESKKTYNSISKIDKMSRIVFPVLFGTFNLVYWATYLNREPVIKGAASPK
T1 sequence (P18507 whole entry): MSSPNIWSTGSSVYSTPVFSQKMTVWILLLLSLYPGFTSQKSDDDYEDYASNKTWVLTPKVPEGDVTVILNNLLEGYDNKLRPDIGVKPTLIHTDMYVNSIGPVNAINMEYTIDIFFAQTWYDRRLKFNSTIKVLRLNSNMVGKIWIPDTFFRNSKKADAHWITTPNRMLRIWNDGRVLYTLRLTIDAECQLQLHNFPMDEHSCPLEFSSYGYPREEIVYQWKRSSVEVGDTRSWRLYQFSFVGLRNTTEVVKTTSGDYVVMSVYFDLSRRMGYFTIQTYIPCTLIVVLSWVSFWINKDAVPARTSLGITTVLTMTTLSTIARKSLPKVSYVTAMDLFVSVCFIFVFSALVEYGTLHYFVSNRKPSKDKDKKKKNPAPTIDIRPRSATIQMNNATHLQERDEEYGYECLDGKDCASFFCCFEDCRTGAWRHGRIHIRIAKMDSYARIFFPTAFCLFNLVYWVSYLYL
T1 sequence (P28472 whole entry): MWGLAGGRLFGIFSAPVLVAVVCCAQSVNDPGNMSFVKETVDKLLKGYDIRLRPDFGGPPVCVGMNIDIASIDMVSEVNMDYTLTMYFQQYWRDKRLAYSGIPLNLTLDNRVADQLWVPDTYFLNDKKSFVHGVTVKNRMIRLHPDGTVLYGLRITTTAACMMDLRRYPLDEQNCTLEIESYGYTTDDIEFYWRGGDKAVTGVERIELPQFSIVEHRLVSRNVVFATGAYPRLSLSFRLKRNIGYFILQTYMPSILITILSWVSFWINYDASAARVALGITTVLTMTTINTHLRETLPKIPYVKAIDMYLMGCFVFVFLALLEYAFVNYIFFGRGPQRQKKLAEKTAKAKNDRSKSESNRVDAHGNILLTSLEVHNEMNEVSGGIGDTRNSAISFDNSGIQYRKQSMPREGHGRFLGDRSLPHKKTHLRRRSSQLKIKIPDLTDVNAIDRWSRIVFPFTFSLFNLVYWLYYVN

[4] = target: T2, GABA-A receptor; alpha-2/beta-3/gamma-2 (Homo sapiens, UniProt P47869+P18507+P28472); test: Displacement of [3H]flunitrazepam from human recombinant GABAA alpha-2-beta-3-gamma-2 receptor expressed in HEK cells by liquid scintillation counting
T2 sequence (P47869 whole entry): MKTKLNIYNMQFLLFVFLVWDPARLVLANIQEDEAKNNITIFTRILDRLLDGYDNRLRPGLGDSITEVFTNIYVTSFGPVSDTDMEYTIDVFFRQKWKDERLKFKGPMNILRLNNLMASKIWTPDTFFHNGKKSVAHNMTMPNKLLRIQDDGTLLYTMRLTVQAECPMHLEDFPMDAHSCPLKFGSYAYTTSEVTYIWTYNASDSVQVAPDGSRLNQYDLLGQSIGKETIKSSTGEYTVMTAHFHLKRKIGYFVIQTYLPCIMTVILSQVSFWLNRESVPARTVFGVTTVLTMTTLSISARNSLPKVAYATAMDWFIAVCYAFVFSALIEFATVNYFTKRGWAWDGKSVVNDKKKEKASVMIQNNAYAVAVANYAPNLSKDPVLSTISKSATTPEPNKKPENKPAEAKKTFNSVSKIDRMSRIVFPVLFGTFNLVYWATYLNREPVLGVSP
T2 sequence (P18507 whole entry): T1 sequence (P18507 whole entry)
T2 sequence (P28472 whole entry): T1 sequence (P28472 whole entry)

[5] = target: T3, Gamma-aminobutyric acid receptor subunit alpha-3/beta-3/gamma-2 (Homo sapiens, UniProt P34903+P18507+P28472); test: Displacement of [3H]flunitrazepam from human recombinant GABAA alpha-3-beta-3-gamma-2 receptor expressed in HEK cells by liquid scintillation counting
T3 sequence (P34903 whole entry): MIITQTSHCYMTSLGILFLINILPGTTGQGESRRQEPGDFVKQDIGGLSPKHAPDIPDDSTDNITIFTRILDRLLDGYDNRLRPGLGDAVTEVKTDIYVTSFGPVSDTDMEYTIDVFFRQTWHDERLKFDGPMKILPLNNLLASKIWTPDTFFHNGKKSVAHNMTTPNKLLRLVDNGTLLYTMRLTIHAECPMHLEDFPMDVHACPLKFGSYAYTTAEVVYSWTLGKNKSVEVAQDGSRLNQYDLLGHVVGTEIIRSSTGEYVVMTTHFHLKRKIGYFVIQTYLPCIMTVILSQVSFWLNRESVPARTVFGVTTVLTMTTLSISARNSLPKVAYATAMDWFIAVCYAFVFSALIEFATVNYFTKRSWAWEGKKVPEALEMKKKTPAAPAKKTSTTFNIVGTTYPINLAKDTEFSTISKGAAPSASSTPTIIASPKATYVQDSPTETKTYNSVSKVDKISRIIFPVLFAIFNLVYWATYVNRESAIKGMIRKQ
T3 sequence (P18507 whole entry): T1 sequence (P18507 whole entry)
T3 sequence (P28472 whole entry): T1 sequence (P28472 whole entry)

Gamma-aminobutyric acid receptor subunit alpha-6/beta-3/gamma-2, sequence (Q16445 whole entry, one chain of several): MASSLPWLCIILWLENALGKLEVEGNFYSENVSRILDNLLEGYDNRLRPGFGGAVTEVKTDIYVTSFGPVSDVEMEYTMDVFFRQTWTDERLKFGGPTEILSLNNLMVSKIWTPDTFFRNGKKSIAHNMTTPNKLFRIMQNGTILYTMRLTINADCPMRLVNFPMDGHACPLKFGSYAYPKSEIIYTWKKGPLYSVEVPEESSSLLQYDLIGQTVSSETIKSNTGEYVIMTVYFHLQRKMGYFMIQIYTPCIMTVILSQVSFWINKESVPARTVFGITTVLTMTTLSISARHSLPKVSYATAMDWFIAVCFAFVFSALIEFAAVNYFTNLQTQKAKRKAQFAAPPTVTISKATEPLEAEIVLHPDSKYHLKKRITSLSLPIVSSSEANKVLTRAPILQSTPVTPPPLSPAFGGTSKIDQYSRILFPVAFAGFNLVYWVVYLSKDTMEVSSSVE
GABA A receptor alpha-4/beta-3/gamma-2, sequence (P48169 whole entry, one chain of several): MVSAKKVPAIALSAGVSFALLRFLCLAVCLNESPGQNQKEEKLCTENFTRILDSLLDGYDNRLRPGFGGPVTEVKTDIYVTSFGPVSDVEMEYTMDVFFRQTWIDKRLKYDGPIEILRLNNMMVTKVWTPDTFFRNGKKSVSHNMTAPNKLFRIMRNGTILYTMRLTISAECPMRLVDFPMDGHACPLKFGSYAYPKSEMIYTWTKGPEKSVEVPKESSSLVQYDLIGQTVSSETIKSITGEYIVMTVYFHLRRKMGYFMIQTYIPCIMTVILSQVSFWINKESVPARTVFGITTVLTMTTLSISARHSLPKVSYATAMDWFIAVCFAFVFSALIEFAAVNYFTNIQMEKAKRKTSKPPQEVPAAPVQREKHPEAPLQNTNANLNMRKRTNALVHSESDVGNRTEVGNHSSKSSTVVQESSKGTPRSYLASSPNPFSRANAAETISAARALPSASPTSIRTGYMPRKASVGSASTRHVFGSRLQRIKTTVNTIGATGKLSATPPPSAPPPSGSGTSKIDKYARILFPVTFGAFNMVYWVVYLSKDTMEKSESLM

Ki [1]	Ki [2]	Ki [3]	Structure (SMILES)	Ki [4]	Ki [5]
3000 nM	2000 nM		O=C(OCC(F)(F)F)c1cc2c(cn1)[nH]c1ccc(-c3ccco3)cc12 [2,2,2-trifluoroethyl 6-(furan-2-yl)-9H-pyrido[3,4-b]indole-3-carboxylate]		
5000 nM	5000 nM	5000 nM	CC(C)(C)OC(=O)c1cc2c(cn1)[nH]c1ccc(C#CC#Cc3ccc4[nH]c5cnc(C(=O)OC(C)(C)C)cc5c4c3)cc12 [1,4-Bis(9H-beta-carboline-3-carboxylic acid tert-butyl ester)buta-1,3-diyne]		
2000 nM	2000 nM		O=C(OCC(F)(F)F)c1cc2c(cn1)[nH]c1ccc(-c3ccccc3)cc12 [2,2,2-trifluoroethyl 6-phenyl-9H-pyrido[3,4-b]indole-3-carboxylate]		
3000 nM	3000 nM		O=C(OC(C(F)(F)F)C(F)(F)F)c1cc2c(cn1)[nH]c1ccc(I)cc12 [1,1,1,3,3,3-hexafluoropropan-2-yl 6-iodo-9H-pyrido[3,4-b]indole-3-carboxylate]		
	5000 nM	5000 nM	C#Cc1ccc2c(c1)c1cc(C(=O)OC(C)(C)C)ncc1n2C(=O)OC(C)(C)C [di-tert-butyl 6-ethynyl-9H-pyrido[3,4-b]indole-3,9-dicarboxylate]		
1000 nM	3000 nM	1000 nM	CC(OC(=O)c1cc2c(cn1)[nH]c1ccccc12)c1ccccc1 (stereo not given) [1-phenylethyl 9H-pyrido[3,4-b]indole-3-carboxylate]	1000 nM	1000 nM
	5000 nM		CC(C)(C)OC(=O)c1cc2c(cn1)[nH]c1ccc(-c3cccs3)cc12 [tert-butyl 6-(thiophen-2-yl)-9H-pyrido[3,4-b]indole-3-carboxylate]		
1000 nM	1000 nM		CCOC(=O)c1cc2c(cn1)[nH]c1ccc(I)cc12 [ethyl 6-iodo-9H-pyrido[3,4-b]indole-3-carboxylate]		
	10000 nM		CC(C)COc1cc2c3ccccc3nc-2c[nH]1		
3000 nM	3000 nM		O=C(Oc1cc(F)c(F)cc1F)c1cc2c(cn1)[nH]c1ccccc12 [2,4,5-trifluorophenyl 9H-pyrido[3,4-b]indole-3-carboxylate]		
1000 nM	2000 nM		O=C(OC(C(F)(F)F)C(F)(F)F)c1cc2c(cn1)[nH]c1ccccc12 [1,1,1,3,3,3-hexafluoropropan-2-yl 9H-pyrido[3,4-b]indole-3-carboxylate]		
	10000 nM	10000 nM	CC/C=C/C=C/Oc1cc2c(cn1)[nH]c1ccccc12 [3-(hexa-1,3-dienyloxy)-9H-pyrido[3,4-b]indole]		
1000 nM	2000 nM		O=C(OCC(Cl)(Cl)Cl)c1cc2c(cn1)[nH]c1ccccc12 [2,2,2-trichloroethyl 9H-pyrido[3,4-b]indole-3-carboxylate]		

Structure (SMILES)	Ki [1]	Ki [2]	Ki [3]	Ki [4]	Ki [5]
C#Cc1ccc2[nH]c3cnc(C(=O)OCC(F)(F)F)cc3c2c1 [2,2,2-trifluoroethyl 6-ethynyl-9H-pyrido[3,4-b]indole-3-carboxylate]	2000 nM	2000 nM			
CC(C)(C)OC(=O)c1cc2c(cn1)[nH]c1ccc(F)cc12 [tert-butyl 6-fluoro-9H-pyrido[3,4-b]indole-3-carboxylate]	1000 nM	1000 nM			
CC(C)(C)OC(=O)c1cc2c(cn1)[nH]c1ccc(C(C)(C)C)cc12 [tert-butyl 6-tert-butyl-9H-pyrido[3,4-b]indole-3-carboxylate]	1000 nM	1000 nM			
CC(C)(C)OC(=O)c1cc2c(cn1)[nH]c1ccc(-c3ccco3)cc12 [tert-butyl 6-(furan-2-yl)-9H-pyrido[3,4-b]indole-3-carboxylate]		5000 nM			
CCCOc1cc2c(cn1)[nH]c1ccccc12 [3-propoxy-9H-pyrido[3,4-b]indole]	1000 nM				
CCOC(=O)c1cc2c(cn1)[nH]c1ccc(C#C[Si](C)(C)C)cc12 [ethyl 6-((trimethylsilyl)ethynyl)-9H-pyrido[3,4-b]indole-3-carboxylate]	2000 nM	2000 nM			
CC(C)(C)OC(=O)c1cc2c(cn1)[nH]c1ccccc12	1000 nM				
O=C(OCC(F)(F)F)c1cc2c(cn1)[nH]c1ccc(-c3cccs3)cc12 [2,2,2-trifluoroethyl 6-(thiophen-2-yl)-9H-pyrido[3,4-b]indole-3-carboxylate]	2000 nM	2000 nM			
c1ccc(COc2cc3c4ccccc4nc-3c[nH]2)cc1		10000 nM	10000 nM	3000 nM	3000 nM
O=C(OCC(F)(F)F)c1cc2c(cn1)[nH]c1ccc(I)cc12 [2,2,2-trifluoroethyl 6-iodo-9H-pyrido[3,4-b]indole-3-carboxylate]	2000 nM	3000 nM			
CCOc1cc2c(cn1)[nH]c1ccccc12 [3-ethoxy-9H-pyrido[3,4-b]indole]		1000 nM			
CC(C)(C)OC(=O)c1cc2c(cn1)[nH]c1ccc(C#C[Si](C)(C)C)cc12 [6-Trimethylsilanylethynyl-9H-beta-carboline-3-carboxylic acid t-butyl ester]		1000 nM			
CC(C)(C)OC(=O)c1cc2c(cn1)[nH]c1ccc(-c3ccccc3)cc12 [tert-butyl 6-phenyl-9H-pyrido[3,4-b]indole-3-carboxylate]		5000 nM			
